This is an account of results in article PMC8262356, “SLC26A6-selective inhibitor identified in a small-molecule screen blocks fluid absorption in small intestine” (JCI Insight, 2021).

The assay deals with CaCC. The assay is described as follows: Short-circuit current in well-differentiated HBE cells, ATP response. It counts as cell-based, human. As to conditions: 25 μM pretreatment. As for the experimental part: PAT1inh-B01 selectivity was studied by testing its effects on related SLC26A family anion transporters and the Cl^– channel TMEM16A. These measurements used a similar Cl^–/I^– exchange protocol, but FRT cells separately expressed each of the SLC26A family members or TMEM16A. […] PAT1inh-B01 selectivity was also tested by short-circuit current (Isc) in well-differentiated human bronchial epithelial (HBE) cells, which have a complex ion transport mechanism that includes cystic fibrosis transmembrane conductance regulator (CFTR), epithelial Na^+ channel (ENaC), and Ca^+2-activated chloride channels (CaCCs) ([13]). […] Potential PAT1inh-B01 cytotoxicity was studied in FRT cells.
Figure 3 PAT1inh-B01 selectivity and cytotoxicity. […] Cl^–/I^– exchange or I^– influx measured in FRT cells coexpressing YFP and SLC26A isoforms or TMEM16A, with data shown for 25 μM PAT1inh-B01, DMSO vehicle control, and 500 μM niflumic acid (positive control for SLC26A transporters) or 10 μM TMinh-23 (positive control for TMEM16A). […] (C) (left) Short-circuit current (Isc) in well-differentiated HBE cells measured in the absence (top) and presence (bottom) of 25 μM PAT1inh-B01. […]
YFP-based cellular assays of slc26a3, slc26a4, SLC26A9, and TMEM16A function were performed as described previously ([7]). […] The activities of ENaC, CFTR, and CaCC were determined using well-differentiated HBE cells as described previously ([13]). […]

With `Cc1c(Br)c(C(F)(F)F)nn1CC(=O)N1CCc2nc3cc(-c4ccccc4)[nH]n3c(=O)c2C1` [PAT1inh-B01], the “effect on CaCC activity (Isc response to ATP)” value is on record as “no significant effect”.
